According to the supplement of paper PMC10307832:

Columns and labels:
Assay in all cases: relative viability (nuclei count vs DMSO), 5 days (fraction); higher = more cells survive
Irinotecan + Pictilisib = compound: CCc1c2c(nc3ccc(OC(=O)N4CCC(N5CCCCC5)CC4)cc13)-c1cc3c(c(=O)n1C2)COC(=O)[C@]3(O)CC [Irinotecan] + CS(=O)(=O)N1CCN(Cc2cc3nc(-c4cccc5[nH]ncc45)nc(N4CCOCC4)c3s2)CC1 [Pictilisib] (partner 1 µM)
Method in brief: (§1)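 Relative viability was taken as the ratio of nuclei in treated wells to nuclei in vehicle wells. Lung cancer cell lines in 1536-well plates received compounds by pin tool one day after seeding, either one drug alone or a fixed anchor-drug dose plus five library-drug doses (not always all listed) in √10 steps. Nuclei were counted on 4× images after 5 days of treatment, and values are medians of duplicate plates.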

MK-8033 + Pemetrexed = compound: Cn1cc(-c2cnc3ccc4ccc(CS(=O)(=O)NCc5ccccn5)cc4c(=O)c3c2)cn1 [MK-8033] + Nc1nc2[nH]cc(CCc3ccc(C(=O)N[C@@H](CCC(=O)O)C(=O)O)cc3)c2c(=O)[nH]1 [Pemetrexed] (partner 0.2 µM)
Method in brief: as §1

MK-8033 + Palbociclib = compound: Cn1cc(-c2cnc3ccc4ccc(CS(=O)(=O)NCc5ccccn5)cc4c(=O)c3c2)cn1 [MK-8033] + CC(=O)c1c(C)c2cnc(Nc3ccc(N4CCNCC4)cn3)nc2n(C2CCCC2)c1=O [Palbociclib] (partner 0.5 µM)
Method in brief: as §1

Irinotecan + Linsitinib = compound: CCc1c2c(nc3ccc(OC(=O)N4CCC(N5CCCCC5)CC4)cc13)-c1cc3c(c(=O)n1C2)COC(=O)[C@]3(O)CC [Irinotecan] + C[C@]1(O)C[C@@H](c2nc(-c3ccc4ccc(-c5ccccc5)nc4c3)c3c(N)nccn32)C1 [Linsitinib] (partner 1 µM)
Method in brief: as §1

Row | Cell Line | relative viability (Irinotecan + Pictilisib; first compound 0.6325 µM) | relative viability (Irinotecan + Pictilisib; first compound 2 µM) | relative viability (Irinotecan + Pictilisib; first compound 6.325 µM) | relative viability (Irinotecan + Pictilisib; first compound 20 µM) | relative viability (MK-8033 + Pemetrexed; first compound 0.02 µM) | relative viability (MK-8033 + Pemetrexed; first compound 0.06325 µM) | relative viability (MK-8033 + Pemetrexed; first compound 0.2 µM) | relative viability (MK-8033 + Pemetrexed; first compound 0.6325 µM) | relative viability (MK-8033 + Pemetrexed; first compound 2 µM) | relative viability (MK-8033 + Palbociclib; first compound 0.02 µM) | relative viability (MK-8033 + Palbociclib; first compound 0.06325 µM) | relative viability (MK-8033 + Palbociclib; first compound 0.2 µM) | relative viability (MK-8033 + Palbociclib; first compound 0.6325 µM) | relative viability (MK-8033 + Palbociclib; first compound 2 µM) | relative viability (Irinotecan + Linsitinib; first compound 0.6325 µM) | relative viability (Irinotecan + Linsitinib; first compound 2 µM) | relative viability (Irinotecan + Linsitinib; first compound 6.325 µM) | relative viability (Irinotecan + Linsitinib; first compound 20 µM)
1 | NCI-H2087 | 0.311 | 0.288 | 0.233 | 0.264 | 0.622 | 0.714 | 0.629 | 0.578 | 0.674 | 0.193 | 0.21 | 0.248 | 0.26 | 0.235 | 0.453 | 0.313 | 0.252 | 0.298
2 | NCI-H1395 | – | 0.539 | 0.471 | 0.35 | 0.921 | 0.758 | 0.693 | 0.914 | 0.815 | 0.499 | 0.588 | 0.654 | 0.612 | 0.624 | – | 0.804 | 0.484 | 0.29
3 | ABC-1 | – | 0.556 | 0.424 | 0.112 | – | – | – | – | – | 0.664 | 0.733 | 0.591 | 0.724 | 0.646 | – | 0.676 | 0.344 | 0.238
4 | NCI-H2023 | 0.148 | 0.204 | 0.113 | 0.0527 | 0.21 | 0.211 | 0.216 | 0.22 | 0.222 | 0.39 | 0.279 | 0.236 | 0.214 | 0.174 | 0.714 | 0.503 | 0.198 | 0.0873
5 | PC-14 | 0.652 | 0.425 | 0.257 | 0.194 | 0.143 | 0.121 | 0.142 | 0.149 | 0.135 | 0.517 | 0.422 | 0.542 | 0.553 | 0.464 | 0.902 | 0.609 | 0.188 | 0.204
6 | ChaGo-K-1 | – | 0.645 | 0.523 | 0.161 | 0.251 | 0.223 | 0.253 | 0.267 | 0.262 | 0.981 | 0.937 | 0.872 | 0.974 | 0.75 | – | – | – | –
7 | NCI-H650 | 0.798 | 0.297 | 0.294 | 0.307 | 0.982 | 0.955 | 0.863 | 0.933 | 0.83 | 0.346 | 0.316 | 0.324 | 0.316 | 0.307 | 0.701 | 0.562 | 0.237 | 0.303
8 | EBC-1 | 0.29 | 0.301 | 0.315 | 0.131 | – | – | – | – | – | – | – | – | – | – | 0.675 | 0.405 | 0.211 | 0.177
9 | NCI-H2228 | 0.408 | 0.562 | 0.399 | 0.395 | 0.274 | 0.343 | 0.365 | 0.308 | 0.325 | 0.815 | 0.729 | 0.807 | 0.621 | 0.82 | 0.706 | 0.714 | 0.39 | 0.477
10 | NCI-H1703 | 0.236 | 0.308 | 0.381 | 0.221 | – | – | – | – | – | – | – | – | – | – | 0.454 | 0.916 | 0.572 | 0.186
11 | 201T | – | 0.738 | 0.36 | 0.346 | 0.306 | 0.348 | 0.301 | 0.291 | 0.312 | 0.329 | 0.37 | 0.356 | 0.369 | 0.367 | – | 0.85 | 0.445 | 0.397
12 | SW 900 | – | – | – | – | 0.489 | 0.401 | 0.47 | 0.507 | 0.463 | 0.518 | 0.536 | 0.493 | 0.519 | 0.495 | – | – | – | –
13 | NCI-H1650 | 0.254 | 0.657 | 0.295 | 0.108 | 0.429 | 0.332 | 0.457 | 0.39 | 0.336 | 0.363 | 0.296 | 0.324 | 0.336 | 0.336 | – | – | – | –
14 | A549 | 0.502 | 0.452 | 0.139 | 0.0724 | – | – | – | – | – | – | – | – | – | – | 0.374 | 0.636 | 0.211 | 0.0965
15 | NCI-H1563 | 0.59 | 0.684 | 0.731 | 0.3 | 0.736 | 0.695 | 0.738 | 0.69 | 0.794 | – | – | – | – | – | 1.09 | 1.27 | 0.969 | 0.718
16 | NCI-H2170 | 0.32 | 0.242 | 0.224 | 0.157 | 0.275 | 0.266 | 0.299 | 0.257 | 0.26 | 0.392 | 0.345 | 0.372 | 0.388 | 0.391 | – | – | – | –
17 | IA-LM | 0.367 | 0.234 | 0.265 | 0.116 | – | – | – | – | – | – | – | – | – | – | 0.31 | 0.393 | 0.248 | 0.123
18 | NCI-H2342 | – | – | – | – | 0.729 | 0.805 | 0.773 | 0.814 | 0.752 | 0.487 | 0.548 | 0.623 | 0.492 | 0.526 | – | – | – | –
19 | NCI-H596 | 0.395 | 0.394 | 0.382 | 0.484 | 0.463 | 0.436 | 0.489 | 0.506 | 0.53 | – | – | – | – | – | 1.01 | 1 | 0.556 | 0.537
20 | NCI-H727 | 0.277 | 0.353 | 0.35 | 0.289 | – | – | – | – | – | 0.668 | 0.617 | 0.653 | 0.612 | 0.657 | 0.157 | 0.334 | 0.284 | 0.391
